Results reported in patent publication US20110117227A1, “COSMETIC COMPOSITION FOR ANTI-AGING OF THE SKIN COMPRISING PHASEOLUS RADIATUS SEED EXTRACTS BY FERMENTATION AND ENZYME TREATMENT” (COREANA COSMETICS, CO., LTD., priority 2008, published 2011).

Legend:
Assay type in all cases: cell-based
[1] = system: Human skin cells, fibroblasts; test: Alleviation of cell irritation caused by lactic acid (MTT cell survival); conditions: lactic acid 0.2% only (comparative control), 12 hours
Experimental: Human skin cells, fibroblasts (KCTC, Korean Collection for Type Culture, Korea), were cultured in T-75 flask (Falcon, USA) until the cell confluency reached 80%. The cells were transferred to a 96-well plate (Falcon, USA) at the density of 3×10^4 cells/well, followed by further culture for 24 hours. After the culture, the cells were observed under microscope if they were completely adhered and well-grown. As a stimulus for skin, lactic acid (0.2%) was used. Particularly, 200 μl of each DMEM supplemented with 0.2% lactic acid and DMEM not-containing lactic acid was added to each well, to which the Phaseolus radiatus extract, the Phaseolus radiatus liquor of yeast-fermentation, the Phaseolus radiatus liquor of lactic acid bacterium-fermentation, the Phaseolus radiatus extract of enzyme treatment-yeast fermentation, the Phaseolus radiatus extract of enzyme treatment-lactic acid bacterium fermentation (Comparative Manufacturing Examples 1-5), and the Phaseolus radiatus extract of fermentation-enzyme treatment (Manufacturing Examples 1 and 2) were added thereto at the concentration of 1.0% (v/v). […] Particularly, MTT (Sigma, USA) solution (3 mg/ml) was added thereto and then Absorbance at 570 nm was measured using ELISA reader (Molecular Devices, USA).

[2] = system: Human normal fibroblasts; test: Collagen biosynthesis (procollagen type I C-peptide level) in human normal fibroblasts; conditions: positive control 250 uM, PICP
Experimental: Human normal fibroblasts were inoculated in a 48-well microplate ([…]) containing DMEM (Dulbecco's Modified Eagle Medium), followed by culture at 37° C. for 24 hours. […] After the culture, supernatant of each well was collected and procollagen type I C-peptide (PICP) level therein was measured using the kit (Takara, Japan) to calculate the amount of collagen newly synthesized. PICP level was calculated as ng/ml. […] The increasing rate of collagen biosynthesis was calculated according to the following Math Figure 1 and the results are shown in Table 2.

[3] = system: Human normal fibroblasts; test: Fibroblast proliferation (MTT); conditions: positive control 10 ng/ml
Experimental: Human normal fibroblasts were inoculated in a 96-well microplate (1×10^4 cells/well) containing DMEM, followed by culture at 37° C. for 24 hours. The Phaseolus radiatus extract prepared in Comparative Manufacturing Example 1, the Phaseolus radiatus liquor of yeast-fermentation prepared in Comparative Manufacturing Example 2, the Phaseolus radiatus liquor of lactic acid bacterium-fermentation prepared in Comparative Manufacturing Example 3, the Phaseolus radiatus extract of enzyme treatment-yeast fermentation prepared in Comparative Manufacturing Example 4, the Phaseolus radiatus extract of enzyme treatment-lactic acid bacterium fermentation prepared in Comparative Manufacturing Example 5, the Phaseolus radiatus extract of yeast fermentation-enzyme treatment prepared in Manufacturing Example 1 and the Phaseolus radiatus extract of lactic acid bacterium fermentation-enzyme treatment prepared in Manufacturing Example 2 were treated to the experimental group in which the final concentration of the respective extracts or liquors was 1% and medium was replaced with serum-free medium, followed by further culture for 24 hours. […] Particularly, MTT (Sigma, USA) solution (3 mg/ml) was added thereto and then Absorbance at 570 nm was measured using ELISA reader (Molecular Devices, USA). […]

CC(O)C(=O)O (stereo not drawn) [lactic acid]
Proliferation rate of fibroblast (%) [1]: 0.0%

O=C1O[C@H]([C@@H](O)CO)C(O)=C1O [Ascorbic acid, ascorbic acid]
Increasing rate of collagen biosynthesis (%) [2]: 72.8%

TGF-β
Proliferation rate of fibroblast (%) [3]: 186.6%
